For orientation: EC50 means the concentration needed to bring the measured effect to its halfway point. As a reminder, the logD is the decadic logarithm of the distribution of all forms, ionised or not, between an organic phase and buffer at a given pH.

The values below come from patent publication US12528777B2, “Quinazolinones derivatives for treatment of non-alcoholic fatty liver disease, preparation and use thereof” (Council of Scientific and Industrial Research, priority 2020, dated 2026).

The nature of data set [1]: Lipophilicity assay (octanol/buffer). As to conditions: for LogD @ pH 7.4 / logD: n-octanol / 10 mM sodium phosphate buffer pH 7.4, LC-UV; for Lipophilicity class from Log D: pH 7.4. In kind it is physicochemical. Here is the method:
1.56 g NaH2PO4·2H2O was dissolved in 0.5 L water in a 1 L beaker. After adjusting pH to 7.4 using NaOH solution, the volume was made up to 1 L. Equal volumes of sodium phosphate buffer (10 mM, pH 7.4) and n-octanol were added to a separation funnel and mixed thoroughly by shaking and inverting the funnel several times. The two layers were allowed to separate for overnight and then dispensed in two separate glass bottles. 10 mM stock solution was prepared in 100% DMSO and stored at 4° C. 495 μL of organic phase (1-octanol) was added to each well of a 2 mL deep well plate, followed by 495 μL of buffer and 10 μL of test compound was added. The plate was incubated for 3 hr at room temperature on a plate shaker at 500 rpm. After incubation, the samples were allowed to equilibrate for 20 min and then centrifuged at 4000 rpm for 30 min for complete phase separation and analysed by LC-UV.
Log D=Log (area of octanol/area of buffer)

Data set [2] concerns ATGL. The experiment in a line: Western blot of ATGL level in HepG2 cells. Set-up: key to Increase in ATGL level: + = slight or in insignificant; ++ = Moderate; +++ and ++++ = active; +++ and ++++ = active; +++++ = very active. The note with it: for ATGL level in HepG2 cells / Increase in ATGL level: western blot; for ATGL level in HepG2 cells: 24 hours, 10 μM screening or 50 nM-5 μM dose dependent; for Increase in ATGL level: HepG2 cells, score. In kind it is cell-based. In outline:
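HepG2 cells were treated with compound 24 h (10 μM screen; 50 nM–5 μM dose series) and lysed. 30 μg protein was western blotted for ATGL, with actin as loading reference. ATGL increase was expressed as percent of the 1.6-fold siCOP1 maximum and plotted against log concentration for EC50.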
For orientation: A western blot detects proteins with antibodies after separation by electrophoresis.

Data set [3] in a line: Metabolic stability using Human Liver Microsomes. As to conditions: for % QH (Well stirred model): NADPH, 0-60 min. The data set is classed as in vitro ADME. Here is the method:
1 mM stock solution of test compound was prepared in DMSO and diluted with Acetonitrile:Water (1:1) to get a 100 μM working concentration. 100 mL of Milli Q water was added to K2HPO4 (1.398 g) and KH2PO4 (0.27 g) to get final pH 7.4 solution of potassium phosphate buffer. […] The above mixture was pre incubated for 15 minutes at 37° C. After pre incubation, 32.5 μL of the mixture was added to 17.5 μL of buffer, this was incubated for 60 minutes at 37° C. [60 min Without Cofactor (NADPH)]. 16.25 μL of the pre incubated mixture and 8.75 μL of cofactor was added to 150 μL of acetonitrile containing internal standard [0 min Sample]. 62 μL of cofactor was added to remaining pre incubation mixture [Incubation mixture]. 25 μL of incubation mixture at 0, 5, 15, 30, 60 min and 60 min without cofactor were precipitated with 150 μL of acetonitrile containing internal standard, vortexed and centrifuged at 4000 rpm at 4° C. for 20 minutes. 120 μL of supernatant was diluted with 120 μL of water and analyzed by LC-MS/MS [sample preparation].
(Microsomes from liver hold many membrane-bound enzymes, among them those of drug oxidation.)

The next data set in a line: Plasma stability assay. The note with it: for Mean % remaining at 2 hrs in human Plasma: 1 μM, 37° C., 120 min, LC-MS/MS; for Plasma stability: human plasma, after 2 hours, with respect to Propantheline. In kind it is in vitro ADME, human. Here is the method: 1 mM Stock of test compound was prepared from 10 mM initial stock solution of compounds by diluting 10 μL of 10 mM stock with 90 μL of DMSO. Then 10 μL of 1 mM stock was diluted with 90 µL of DMSO to give 100 μM concentration. The frozen plasma was thawed at room temperature and centrifuged at 1400 rpm at 4° C., for 15 minutes. Approximately […] of the clear supernatant fraction was transferred to a separate tube and was used for the assay. Final working stock of 1 μM was prepared by diluting 3 μL of 100 μM with 297 μL of plasma. Plasma containing the test compound was incubated for 120 min at 37° C. in shaker with 500 rpm. 50 μL of aliquot of sample at 0, 15, 30, 60 and 120 minutes were precipitated with 150 μL of acetonitrile containing internal standard and centrifuged at 4000 rpm at 4° C. for 20 minutes. 120 μL of supernatant was diluted with 120 μL of water and analyzed by LC-MS/MS.

The test system of another data set is HepG2 cells. Nature of the data set: Confocal microscopy: lipid droplets in oleate induced HepG2 cells. The data set is classed as cell-based. Set-up: key to Reduction in Lipid Droplets: + = slight or in insignificant; ++ = Moderate; +++ and ++++ = active; +++ and ++++ = active; +++++ = very active. As to conditions: oleate induced HepG2 cells, score. The method, boiled down:
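HepG2 cells were loaded with 250 μM oleate and given compound in DMSO (10 μM screen; 10 nM–5 μM dose series) for 24 h; BSA as negative control. Lipid droplets stained with BODIPY/Hoechst, imaged confocally; mean droplets per cell counted over ~20 cells versus oleate-only cells.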

Data set [4] concerns ATGL. The experiment in a line: qPCR of ATGL mRNA in HepG2 cells. The data set is classed as cell-based. The note with it: 5 μM and 10 μM, 24 hours. Here is the method:
(§1) Ubiquitination of ATGL by COP1 is a post translational event, therefore, it is expected that the mRNA level of ATGL will not change compared to control upon treatment with the compound of the present disclosure which inhibit COP1. To establish this, HepG2 cells were treated with 5 μM and 10 μM of the compounds 9, 107, 171, 179 and 73 for 24 hours. RNA was isolated using TRIzol reagent followed by chloroform treatment and precipitation with isopropanol. cDNA was obtained from the isolated RNA and qPCR was carried out using SyBr green reagent. COP1 and ATGL gene expression levels were checked. 18s was used as control. FIG. 8 illustrates that compounds exert no effect on the mRNA levels of ATGL.
Background: In qPCR the cycle at which signal appears reflects the starting amount.

The target of data set [5] is COP1 (Homo sapiens, UniProt Q8NHY2). Nature of the data set: In vitro ubiquitination of purified ATGL by COP1 with UbcH6. The data set is classed as biochemical. Also on record: host or cells: HEK293A. The note with it: 5 μM compound, COP1 overexpressing HEK293A lysate. The text has this: Purification of ATGL protein and obtaining COP1 overexpressing cell lysate: Myc-ATGL plasmid and Myc-DDK-COP1 plasmid ([…] each) were transfected separately in cultured HEK293A cells with the help of Lipofectamine2000 (Invitrogen). Cells were harvested in Lysis Buffer and protein solution was extracted as described previously. The Lysis Buffer used to harvest COP1 overexpressing cells had 0.1% SDS supplemented in it. The concentration of protein was estimated using Bradford assay. For source of E3 ligase, the total cell lysate from COP1 overexpressing HEK293A cells were used.
For purification of Myc-ATGL: 1 ml of Ni^2+-NTA resin (Roche) was taken in a 15 ml centrifuge tube and centrifuged at 2000 RPM for 5 minutes. The upper ethanol layer was discarded and the pellet was washed in 1×PBS twice to remove any remaining traces of ethanol. The pellet was finally washed once with Lysis Buffer for equilibration. […] The tube was incubated overnight at 4° C. in a rotary shaker.
The next day, the solution was centrifuged at 2000 RPM for 10 minutes and the supernatant collected. Lysis Buffer (containing protease inhibitor cocktail twice the previous concentration) was used for washing the beads twice to remove non-specific and unattached reactants in a stringent condition. The beads were finally washed once with 1×PBS containing the same amount of protease inhibitor for equilibration. 300 μl of 500 mM Imidazole (Sigma Aldrich) solution in 1×PBS was added to the resin for elution of ATGL and centrifuged at 2000 RPM for 30 minutes and the eluted protein was collected. To the separated resin, 300 μl of 1M Imidazole solution was added and centrifuged at 2000 RPM for 30 minutes and the second elute was collected. […] of eluted protein from each elution was boiled with 5 μl of Laemmli's buffer at 95° C. for 10 minutes and run in 10% SDS-PAGE gel. The supernatant collected before elution of ATGL and the proteins still attached to the Ni^2+-NTA resin were also run in the SDS-PAGE. The resolved proteins were subsequently transferred on PVDF membranes and probed with anti-myc primary antibody to check the presence of purified ATGL in the elute. Also to check the yield of the purified protein, 40 μl of the elute was run in 10% SDS page and stained with Coomassie Brilliant Blue solution followed by destaining with methanol, glacial acetic acid and water in a 50:40:10 ratio.
For identifying the E2 ubiquitin-conjugating enzyme responsible for ATGL ubiquitination by COP1, an in vitro ubiquitinylation kit (Enzo Life Sciences) was used. The assay was reconstituted as per manufacturer's protocol with the panel of E2 conjugating enzymes provided and other required components at the mentioned concentrations. The reaction was carried out for 6 hours following which it was quenched as per directions with the provided 2× non-reducing gel buffer and then analysed by western blotting.
Having identified the E2 ubiquitin conjugating enzyme as UbcH6, ubiquitination assay was set up in vitro as described previously with 5 μM of the compound 9, 107, 171, 179 and 73 followed by quenching and analysis by western blotting.
Ubiquitination of a target protein is carried out in a three step process involving three different enzymes: E1 ubiquitin activating enzyme, E2 ubiquitin conjugating enzyme and E3 ubiquitin ligase. In humans, there is only one E1 ubiquitin activating enzyme and multiple E2 and E3 enzymes. […]

For data set [6], the system named is COP1. The experiment in a line: qPCR of COP1 mRNA in HepG2 cells. In kind it is cell-based. The note with it: 5 μM and 10 μM, 24 hours. Here is the method:
as §1

Sequence of COP1 (Homo sapiens, UniProt Q8NHY2) (Q8NHY2 whole entry): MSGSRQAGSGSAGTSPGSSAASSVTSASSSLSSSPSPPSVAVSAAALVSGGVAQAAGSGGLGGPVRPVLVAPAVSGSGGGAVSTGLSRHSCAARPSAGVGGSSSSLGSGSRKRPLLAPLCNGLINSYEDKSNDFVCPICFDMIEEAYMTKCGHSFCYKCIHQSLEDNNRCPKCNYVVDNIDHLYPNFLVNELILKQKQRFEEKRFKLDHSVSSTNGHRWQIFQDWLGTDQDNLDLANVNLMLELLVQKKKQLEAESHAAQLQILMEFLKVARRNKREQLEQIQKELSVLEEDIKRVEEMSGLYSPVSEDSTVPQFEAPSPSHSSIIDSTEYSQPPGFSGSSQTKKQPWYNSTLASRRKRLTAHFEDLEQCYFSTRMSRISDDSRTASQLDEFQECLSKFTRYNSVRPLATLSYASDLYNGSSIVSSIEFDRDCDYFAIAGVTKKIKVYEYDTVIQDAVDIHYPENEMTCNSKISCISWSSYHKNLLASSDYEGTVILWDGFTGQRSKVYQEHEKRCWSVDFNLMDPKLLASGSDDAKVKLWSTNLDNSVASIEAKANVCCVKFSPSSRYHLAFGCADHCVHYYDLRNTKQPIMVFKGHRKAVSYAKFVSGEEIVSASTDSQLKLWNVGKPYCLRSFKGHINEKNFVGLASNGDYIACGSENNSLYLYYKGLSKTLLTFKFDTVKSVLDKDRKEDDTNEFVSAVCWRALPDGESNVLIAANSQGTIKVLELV

Consider `COCCc1ccc(OCC(O)CNC(C)C)cc1` (stereo not drawn) [Metroprolol, reference compound], for which the “LogD @ pH 7.4” value in data set [1] is −0.09.
In the case of `COCCn1c(-c2ccccn2)nc2ccc(NC(=O)Nc3cccc(C(C)=O)c3)cc2c1=O` [Compound 211, 1-(3-acetylphenyl)-3-(3-(2-methoxyethyl)-4-oxo-2-(pyridin-2-yl)-3,4-dihydroquinazolin-6-yl)urea], the EC50 with ATGL [2] (fold increase of ATGL by densitometry, as % of 1.6 fold maximum with siCOP1, doses 10-5000 nM, read-out: EC50 (in-vitro)) is 199 nM. Also, the “ATGL level in HepG2 cells” value in the data set on ATGL [2] is listed as “increased ATGL level”. Besides, in data set [3], the “Clearance class from % QH” value is given as “medium clearance” and the “% QH (Well stirred model)” value was 38.8%. Also, in data set [1], the logD is 2.48 and the “Lipophilicity class from Log D” value is listed as “ideal lipophilicity”. In the data set “Plasma stability assay”, the “Mean % remaining at 2 hrs in human Plasma” value (“Mean % remaining at 2 hrs” for short) is on record as 110.3% and the “Plasma stability” value is recorded as “good plasma stability”.
On to `CC(=O)c1cccc(NC(=O)Nc2ccc3ncn(CC(=O)Nc4ccccc4F)c(=O)c3c2)c1` [Compound 253, 2-(6-(3-(3-acetylphenyl)ureido)-4-oxoquinazolin-3 (4H)-yl)-N-(2-fluorophenyl)acetamide], for which, in the data set on ATGL [2], the “Increase in ATGL level” value is “+”. Besides, in data set [3], the “Clearance class from % QH” value is listed as “lower clearance” and the “% QH (Well stirred model)” value came out at 29.8%. Further, in data set [1], the logD came to 3.01 and the “Lipophilicity class from Log D” value is “ideal lipophilicity”. Also, in “Plasma stability assay”, the “Mean % remaining at 2 hrs” value is 67.2% and the “Plasma stability” value was “good plasma stability”. The “Reduction in Lipid Droplets” value in the data set with HepG2 cells was “++”.
For the molecule `O=c1c(O)c(-c2ccc(O)c(O)c2)oc2cc(O)cc(O)c12` [Quercetin, reference compound], the “LogD @ pH 7.4” value in data set [1] worked out at 2.81.
Consider `CC(C)[N+](C)(CCOC(=O)C1c2ccccc2Oc2ccccc21)C(C)C` [Propantheline, reference compound], for which, in “Plasma stability assay”, the “Mean % remaining at 2 hrs” value was 1.7%.
`COCCn1c(C2CCCCC2)nc2ccc(NC(=O)Nc3cccc(C(C)=O)c3)cc2c1=O` [Compound 123, 1-(3-acetylphenyl)-3-(2-cyclohexyl-3-(2-methoxyethyl)-4-oxo-3,4-dihydroquinazolin-6-yl)urea]: in the data set with ATGL [2], the “Increase in ATGL level” value is “++++” and the “ATGL level in HepG2 cells” value is listed as “increased ATGL level”. Besides, in data set [1], the pH-dependent lipophilicity (logD) amounted to 0.84 and the “Lipophilicity class from Log D” value was “hydrophilic”. Also, in the data set “Plasma stability assay”, the “Mean % remaining at 2 hrs” value was 48.5% and the “Plasma stability” value was “good plasma stability”. Further, in the data set with HepG2 cells, the “Reduction in Lipid Droplets” value is reported as “+++”.
Consider `COCCn1c(C(=O)N2CCCCC2)nc2ccc(NC(=O)Nc3cccc(C(C)=O)c3)cc2c1=O` [Compound 330a, 1-(3-acetylphenyl)-3-(3-(2-methoxyethyl)-4-oxo-2-(piperidine-1-carbonyl)-3,4-dihydroquinazolin-6-yl)urea], for which, in data set [3], the “Clearance class from % QH” value is recorded as “lower clearance” and the “% QH (Well stirred model)” value worked out at 26.0%. Also, in data set [1], the pH-dependent lipophilicity (logD) turned out to be 1.79 and the “Lipophilicity class from Log D” value is listed as “ideal lipophilicity”. In the data set “Plasma stability assay”, the “Mean % remaining at 2 hrs” value is on record as 45.8% and the “Plasma stability” value is recorded as “good plasma stability”.
Regarding `CCC(COC)n1cnc2ccc(NC(=O)Nc3cccc(C(C)=O)c3)cc2c1=O` (stereo not drawn) [Compound 171, 1-(3-acetylphenyl)-3-(3-(1-methoxybutan-2-yl)-4-oxo-3,4-dihydroquinazolin-6-yl)urea], the “Increase in ATGL level” value in the data set on ATGL [2] is reported as “+++”. The “ATGL mRNA level” value with ATGL [4] was “no significant changes”. At COP1 [5], the “ATGL ubiquitination by COP1 in vitro” value is given as “effective in reducing the ubiquitination of ATGL by COP1”. In the data set on COP1 [6], the “COP1 mRNA level” value was “no significant changes”.
